US20260258010A1, “THIOPHENE-2-CARBOXYLIC ACID DERIVATIVE, AND PREPARATION METHOD THEREFOR AND MEDICAL USE THEREOF” (CHINA PHARMACEUTICAL UNIVERSITY, priority 2023, published 2026)

Key:
P2Y14 receptor = biological target: T1, P2Y14 receptor (Homo sapiens, UniProt Q15391); assay: cAMP inhibition assay in HEK293 cells stably transfected with the P2Y14 receptor (UDPG-stimulated, cAMP Glo); type: cell-based; conditions: 100 nM compound; HEK293 stably transfected with P2Y14 receptor; 30 μM Forskolin, 1 μM UDPG, 4 h; inhibition rate from cAMP content; read-out: Inhibition @ 100 nM
T1 construct: expressed in transfected cells; host or cells: HEK293
T1 sequence (Q15391 1-338): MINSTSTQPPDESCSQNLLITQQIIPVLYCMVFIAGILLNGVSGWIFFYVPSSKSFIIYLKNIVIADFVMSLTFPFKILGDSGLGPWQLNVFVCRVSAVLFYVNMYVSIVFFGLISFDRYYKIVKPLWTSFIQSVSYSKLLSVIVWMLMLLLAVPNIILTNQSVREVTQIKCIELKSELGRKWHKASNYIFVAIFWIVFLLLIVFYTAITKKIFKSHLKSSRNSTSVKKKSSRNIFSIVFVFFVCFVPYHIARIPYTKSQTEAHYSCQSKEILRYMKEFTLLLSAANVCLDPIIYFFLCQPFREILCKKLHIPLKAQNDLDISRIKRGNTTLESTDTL
Method: An HEK293 cell strain stably transfected with the P2Y14 receptor was cultured in a DMEM culture medium (containing […], 100 U/mL penicillin, and 100 μg/mL streptomycin). Before the experiment, the cells were seeded into a culture plate at a density of 1×10^5 cells/well, and a serum-free culture medium was used instead. The cells were cultured at 37° C. with […] and 5% CO2 humidity. IBMX was added to inhibit the activity of PDEs, thereby ensuring a relatively high level of cAMP. The AC agonist Forskolin (30 μM) was adopted to stimulate the production of cellular cAMP. Test compounds at different concentrations (0.01 nm, 0.1 nm, 1 nm, 10 nm, and 100 nm) were added in advance, and PPTN was used as a positive control. Subsequently, 1 μM P2Y14 receptor agonist UDPG was added, and after 4 h, the content of intracellular cAMP was measured using a cAMP Glo™ Assay kit (PROMEGA Co. Ltd., USA). The inhibition rate was calculated based on the cAMP content.

acute peritonitis model = assay: LPS-induced acute peritonitis model, inflammatory factors in peritoneal fluids; type: in vivo; conditions: 5, 10 and 20 mg/kg by intraarticular injection, male ICR mice, 6 h after injection, vs model control, FIGS. 6-8
Method: Male clean-grade ICR mice were housed with free access to water and food, and with illumination for 12 h every day at an ambient temperature of 25±2° C. The animals were divided into several groups, that is, a normal control group, a model control group, and administration groups (test compound and dexamethasone). An acute peritonitis model was induced by a single intraperitoneal injection of LSP, while an equal volume of physiological saline was injected into the joint cavity in the normal control group. Each administration group was given test compound 5 (5 mg/kg, 10 mg/kg, and 20 mg/kg) and dexamethasone (10 mg/kg) by intraarticular injection. 6 h after the injection, 8 mL of PBS was injected, and the peritoneal cavity fluids were collected.

[1] = test system: IL-1β in the supernatant of the THP-1 cell culture medium; assay: IL-1β ELISA in supernatant of LPS/ATP-stimulated THP-1 cell culture medium; type: cell-based, Human; conditions: PPTN 5 μM, PMA-differentiated THP-1, LPS 100 ng/mL + ATP 5 mM, FIG. 5
Method: Human THP-1 cells were cultured in an RPMI-1640 culture medium (containing 10% fetal bovine serum, 100 U/mL penicillin, and 100 μg/mL streptomycin) and seeded into a culture plate at a density of 1×10^5 cells/well before the experiment. The cells were cultured at 37° C. with 95% 02 and 5% CO2 humidity. Before the experiment, PMA was added at 100 ng/mL to each well, and the cells were incubated for 24 h to induce the differentiation of the THP-1 cells into macrophages. Test compound 5 (2.5 μM, 5 μM, and 10 μM) and PPTN (5 μM) were added to the culture medium in advance for intervention. After 1 h, LPS at a final concentration of 100 ng/mL was added to the cells. After 3 h, ATP at a final concentration of 5 mM was added. After 1 h, the indexes were determined as follows:
The level of IL-1β in the supernatant of the cell culture medium was detected by an ELISA kit (Shenzhen NeoBioscience Technology Co., Ltd.), and the results are shown in FIG. 5.

| SMILES | inhibition at 0.1 µM (P2Y14 receptor) [%] | gene expression levels of inflammatory factors in mouse peritoneal fluids (acute peritonitis model) | level of IL-1β in the supernatant of the cell culture medium [1] |
| --- | --- | --- | --- |
| Cc1ccc(C(=O)Nc2cc(C(=O)O)sc2Oc2ccc(C)nc2)cc1 [Compound 5, 5-((6-methylpyridin-3-yl)oxy)-4-(4-methylbenzamido)thiophene-2-carboxylic acid] | 99.4 | down-regulate the gene expression levels of inflammatory factors to different degrees | – |
| O=C(O)c1cc(-c2ccc(C3CCNCC3)cc2)c2ccc(-c3ccc(C(F)(F)F)cc3)cc2c1 [PPTN] | – | – | showed an expected effect |
